# Laboratory results published in US20250129033A1, “METAP2 INHIBITORS AND USES THEREOF” (Yissum Research Development Company of the Hebrew …, priority 2022, published 2025).
# How the values were obtained:
# [1] = target: T1, recombinant human methionine aminopeptidase 2 (Homo sapiens, UniProt P50579); test: Enzymatic activity assay on recombinant human MetAp2 (L-Met-AMC); format: biochemical; details: 2.5 μM, over the course of 1 h, vs untreated control
# T1 construct: purchased bio-techne 3795-ZN
# Procedure: The enzymatic assay was performed using 5 μg protein per sample as described previously. To test the inhibitory effect of AD-3281, at the same conditions, AD-3281 was also added to 0.33 μg recombinant human methionine aminopeptidase 2 obtained from bio-techne (USA, 3795-ZN), samples were incubated with the inhibitor for 15 min at RT before adding the substrate. The reaction was started by adding 250 μM L-Met-AMC as a substrate. An increase of fluorescence, due to substrate degradation during the enzymatic assay, was measured every 20 seconds for 1 h and 30 min at 37° C. using a plate reader (Wallac 1420 VICTOR plate reader, Perkin-Elmer Life Sciences, USA). The assay was carried out on a 96-well plate on ice and it was performed in an assay buffer (pH 7.5) containing 50 mM HEPES, 0.1 mM CoCl2, 100 mM NaCl and 1 mg/mL PEG 6000, in a final volume of 100 μL.
# (§1) A375 and MDA-MB-231 were sub-cultivated using trypsin, then centrifuged and counted. […] The protein content of the supernatant was determined according to the Bradford protein assay using BSA as the standard. […] An increase of fluorescence, due to substrate degradation during the enzymatic assay, was measured every 20 seconds for 1 h and 30 min at 37° C. using a plate reader (Wallac 1420 VICTOR plate reader, Perkin-Elmer Life Sciences, USA). […]
# [2] = target: T2, MetAp2 in A375 cancer cells (Homo sapiens, UniProt P50579); test: MetAp2 enzymatic activity in A375 cell homogenate; format: biochemical; details: 2.5 μM
# T2 construct: host or cells: A375 cell homogenate (RIPA supernatant, 5 µg protein)
# Procedure: A375 and MDA-MB-231 were sub cultivated using trypsin, then centrifuge and counted. To obtain a homogenate containing an equivalent cell number, cells were resuspended in an appropriate volume of cold RIPA containing a protease inhibitor cocktail. Insoluble cellular components were removed by centrifugation at 15,000 RPM for 10 min at 4° C. The protein content of the supernatant was determined according to the Bradford protein assay using BSA as the standard.
# The enzymatic assay was performed using 5 μg protein per sample as described previously. […] An increase of fluorescence, due to substrate degradation during the enzymatic assay, was measured every 20 seconds for 1 h and 30 min at 37° C. using a plate reader (Wallac 1420 VICTOR plate reader, Perkin-Elmer Life Sciences, USA). […]
# as §1
# HUVECs = test: HUVEC proliferation assay (MTT); format: cell-based, human; details: for reduction in HUVECs proliferation: 72 h, MTT
# Procedure: Human Umbilical Vein Endothelial Cells (HUVECs) or human melanoma cell line (A375) were used to validate the ability of the compound to suppress endothelial cell proliferation. Each 1500 A375 cells/well or 2000 HUVEC cells/well were seeded in a 96 wells plate and allowed to adhere to the plate for few hours. Compounds were then added to the cells at concentration range of 0.05-10 μM (<0.1% DMSO). Cells were then incubated for additional 72 hours and MTT was done (2 to 3 h at 37° C.). The dye was solubilized with DMSO and the absorbance was determined at 570 nm.
# A375 were seeded (2000 cells/well) exposed to TNP-470 and to arrange concentrations of AD-3281 (1-100 μM) cells were incubated for 72 h at 37° C., After incubation, MTT (Sigma Aldrich, St. Louis City, MO, USA) was added (0.5 mg/mL) into each well for viability detection and incubated at 37° C. and 5% CO2 for 40 minutes. The absorbance was measured at 540 nm using a plate reader (Wallac 1420 VICTOR plate reader, Perkin-Elmer Life Sciences, USA). The proliferation of HUVECs was measured under the same conditions. HUVECs were seeded (3000 cells/well) in 96-well plates
# To further verify the inhibition activity of encapsulated AD-3281 in PLGA nanoparticles HUVECS and A375 were exposed to different concentrations of nanoparticles equivalent to 50-1000 nM free AD-3281 (0.2-4.16 mg/ml nanoparticles) empty nanoparticles were added as a control. The effect of AD-3281 on HUVECs growth was evaluated after 5 days.
# A375 were seeded (2000 cells/well) exposed to TNP-470 and to arrange concentrations of AD-3281 (1-100 μM) cells were incubated for 72 h at 37° C., after incubation, MTT (Sigma Aldrich, St. Louis City, MO, USA) was added (0.5 mg/mL) into each well for viability detection and incubated at 37° C. and 5% CO2 for 40 minutes. The absorbance was measured at 540 nm using a plate reader (Wallac 1420 VICTOR plate reader, Perkin-Elmer Life Sciences, USA). The proliferation of HUVECs was measured under the same conditions. HUVECs were seeded (3000 cells/well) in 96-well plates. […]
# T2 sequence (P50579 whole entry): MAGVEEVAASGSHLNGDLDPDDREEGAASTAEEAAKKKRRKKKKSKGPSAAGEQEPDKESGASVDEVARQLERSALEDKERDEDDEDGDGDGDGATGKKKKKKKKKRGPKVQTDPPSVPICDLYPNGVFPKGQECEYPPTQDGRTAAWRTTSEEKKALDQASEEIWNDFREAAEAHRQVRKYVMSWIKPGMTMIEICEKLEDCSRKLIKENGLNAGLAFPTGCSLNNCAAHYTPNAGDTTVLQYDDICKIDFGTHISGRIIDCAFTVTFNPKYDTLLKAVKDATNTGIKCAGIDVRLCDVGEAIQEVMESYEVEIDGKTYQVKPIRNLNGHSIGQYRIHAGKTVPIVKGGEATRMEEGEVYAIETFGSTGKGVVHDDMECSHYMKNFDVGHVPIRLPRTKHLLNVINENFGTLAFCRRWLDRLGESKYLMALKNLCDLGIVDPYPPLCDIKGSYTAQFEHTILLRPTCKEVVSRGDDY
# T1 sequence (P50579 whole entry): as above
structure (smiles),measurement,setting,value
"COC1C(OC(=O)CC23CC4CC(CC(C4)C2)C3)CCC2(CO2)C1C1(C)OC1CC=C(C)C (stereo not drawn) [AD-3281, Fumagillol-1-adamantylacetate]",inhibition of rhMetAp2 enzymatic activity,[1],95%
same,inhibition of MetAp2 activity in A375 after 10 minutes,[2]; 10 minutes of exposure,Significant inhibition
same,reduction of MetAp2 enzymatic activity in A375,[2]; over the course of 1 h,64%
same,suppression of endothelial cell proliferation (ranking among compounds),HUVECs,most active
same,reduction in HUVECs proliferation,HUVECs; 1 μM,40%
same,reduction in HUVECs proliferation,HUVECs; 10 μM,50%
